The structures appear in SMILES notation.

Type in all cases: in vivo
One assay deals with ICR mice. Description: Mouse tail-hanging experiment (Experiment 3). The procedure: 3.1 Experimental animals: ICR mice, male, 22.0±2 g of body weight, secondary, are provided by the Experimental Animal Science Department of Capital Medical University, Beijing. 3.2 Experiment pharmaceuticals: The pharmaceutical of Embodiment 2 is provided by Beijing Wormer Biotech. […] High dose of Embodiment 2 (80 mg/kg/d); 2. middle dose of Embodiment 2 (40 mg/kg/d); and 3. low dose of Embodiment 2 (20 mg/kg/d). 3.5.1 Group division and administration of drug: The mice are grouped randomly, and 10 mice are in each group. 1. High dose of Embodiment 2 (80 mg/kg, P.O., administered for 7 days); 2. middle dose of Embodiment 2 (40 mg/kg, P.O., administered for 7 days); 3. low dose of Embodiment 2 (20 mg/kg, P.O., administered for 7 days); 4. […] After 1 hour of the last administration of drug, the mouse tail-hanging experiment is proceeded. 3.5.2 Experimental method: The mouse's tail (1 cm to the tail end) is taped on the wood strip higher than the platform for 5 cm and hung up for 6 minutes. The time of non-movement of the mouse for the last 5 minutes is recorded. 3.5.3 Statistic calculation: The experimental data are represented as X±SD, and the experimental result is calculated as ANOVA by SPSS 11.5 statistic software.

Assay [1] deals with rat olfactory bulb lesion model. Description: Step through test (passive avoidance) of the rat olfactory bulb lesion model (Experiment 7). Particulars: 2 mg/kg/d into the stomach, 24 days. The protocol: Olfactory bulb lesion model: Health Wistar male rats, secondary, 330±20 g of body weight, are purchased from Beijing Vital River Experimental Animal Technology Ltd. Co. (The quality certificate number: SCXK (JING) 2002-2003).
(§1) The above pharmaceuticals are prepared with 0.5% of sodium carboxymethylcellulose (CMC-Na) for feeding into the stomach. Benzylpenicillin sodium for injection is the product of North China Pharmaceutical Huasheng Co. Ltd. (Lot: S0511204), and norepinephrine (NE) and 5-hydrotryptamine (5-HT) standards are the products of Sigma Co. Other reagents are all marketed.
7.4.1 Group division and administration of drug: The rats are grouped randomly into 6 groups. 1. […]
7.5.2 Passive avoidance experiment (Step-through test): The step through box is configured by the light chamber and the dark chamber, and a channel is linked between the bright chamber and the dark chamber for mouse entrance and exit. […] The time that the rat enters into for the first time is recorded (electric-shocking latent period), and the time thereof is the learning record. […]
7.6 Statistic calculation: The experimental data are represented as X+SD, and the experimental result is calculated as ANOVA by SPSS 11.5 statistic software.

For assay [2], the system named is unpredictable long-term stimulus model. The assay can be described thus: Rat swimming by compulsion, unpredictable long-term stimulus model (Experiment 8). The following applies: 2 mg/kg/d into the stomach, 24 days; 1 h after dose; last 5 minutes. The procedure: Unpredictable long-term stimulus model: Health Wistar male rats, secondary, 240˜270 g of body weight, are purchased from Beijing Vital River Experimental Animal Technology Ltd. Co. (The quality certificate number: SOCK (JING) 2002-2003).
as §1
8.4.1 Group division and administration of drug: The rats are grouped randomly into 6 groups. 1. False therapy group; 2. model group (control); 3. high dose of Embodiment 4 (60 mg/kg/d); 4. middle dose of Embodiment 4 (30 mg/kg/d); 5. low dose of Embodiment 4 (15 mg/kg/d); and 6. […]
8.5.3 Rat swimming by compulsion: This experiment is proceeded for two days after the last administration of drug. […] After 1 hour of administration of drug, the rat is placed in the tank, and the time of non-movement of the rat for the last 5 minutes is recorded.
8.6 Statistic calculation: The experimental data are represented as […], and the experimental result is calculated as ANOVA by SPSS 11.5 statistic software.

Turning to `Fc1ccc([C@@H]2CCNC[C@H]2COc2ccc3c(c2)OCO3)cc1` [Paroxetine], the Time of non-movement was 75.33 ± 22.91 s in the assay on ICR mice (3 mg/kg P.O. 7 days, 1 h after last dose, last 5 of 6 min) and 31.38 ± 19.59 s in assay [2]. Moreover, the “Effect on time of non-movement after the mouse's tail is hung up (in words)” value in the assay on ICR mice (middle dose of Embodiment 2, Paroxetine, significantly different from control) is reported as “decrease the time of non-movement”. Further, the “Latent period of the 1st day” value in assay [1] (learning record) turned out to be 181.87 ± 90.54 s. In addition, the “Latent period of the 2nd day” value in assay [1] (memory record) was determined as 265.00 ± 65.39 s.

The record behind these values is US20100311674A1, “PHARMACEUTICAL COMPOSITIONS WITH A MECHANISM OF MULTI-TARGET RECEPTOR RETROACTION FOR TREATING DEPRESSION” (Yu-Fen Chi, priority 2007, published 2010).
